Target: T1, human GLP-1 receptor (Homo sapiens, UniProt P43220)
T1 construct: expressed in transfected cells; host or cells: BHK467-12A (tk-ts13), baby hamster kidney; purified plasma membranes
Test: In vitro potency (CRE luciferase; whole cells)
Assay type: cell-based
Procedure: The purpose of this example is to test the activity, or potency, of the GLP-1 derivatives in vitro. The in vitro potency is the measure of human GLP-1 receptor activation in a whole cell assay.
In vitro potency was determined by measuring the response of human GLP-1 receptor in a reporter gene assay. The assay was performed in a stably transfected BHK cell line that expresses the human GLP-1 receptor and contains the DNA for the cAMP response element (CRE) coupled to a promoter and the gene for firefly luciferase (CRE luciferase). When the human GLP-1 receptor was activated it results in the production of cAMP, which in turn results in the luciferase protein being expressed. When assay incubation was completed the luciferase substrate (luciferin) was added and the enzyme converts luciferin to oxyluciferin and produces bioluminescence. The luminescence was measured and was the readout for the assay.
The cells were cultured at 5% CO2 in cell culture medium. They were aliquoted and stored in liquid nitrogen. Before each assay an aliquot was taken up and washed twice in PBS before being suspended at the desired concentration in the assay specific buffer.
• 1) Cell stocks were thawed in a 37° C. water bath. • 2) Cells were washed three times in PBS. • 3) The cells were counted and adjusted to 5×10^3 cells/50 μl (1×10^5 cells/ml) in assay medium. […]

T1 sequence (P43220 24-463): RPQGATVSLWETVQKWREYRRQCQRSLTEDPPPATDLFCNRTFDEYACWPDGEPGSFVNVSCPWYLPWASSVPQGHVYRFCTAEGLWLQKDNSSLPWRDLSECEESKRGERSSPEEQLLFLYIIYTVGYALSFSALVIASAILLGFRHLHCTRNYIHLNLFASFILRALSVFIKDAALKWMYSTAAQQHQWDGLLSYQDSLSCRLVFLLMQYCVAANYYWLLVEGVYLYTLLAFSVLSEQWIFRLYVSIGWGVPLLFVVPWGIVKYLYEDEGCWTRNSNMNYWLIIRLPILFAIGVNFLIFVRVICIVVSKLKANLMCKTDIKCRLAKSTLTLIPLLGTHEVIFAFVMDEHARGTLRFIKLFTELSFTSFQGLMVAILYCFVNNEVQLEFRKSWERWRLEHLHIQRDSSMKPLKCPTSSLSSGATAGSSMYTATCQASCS

`CC[C@H](C)[C@H](NC(=O)[C@H](Cc1ccccc1)NC(=O)[C@H](CCC(=O)O)NC(=O)[C@H](CCCCNC(=O)[C@@H](N)CCCCNC(=O)[C@H](CO)NC(=O)CNC(=O)[C@H](CO)NC(=O)CC[C@H](NC(=O)CCCCCCCCCCCOc1ccc(C(=O)O)cc1)C(=O)O)NC(=O)[C@H](C)NC(=O)[C@H](C)NC(=O)[C@H](CCC(N)=O)NC(=O)CNC(=O)[C@H](CCC(=O)O)NC(=O)[C@H](CC(C)C)NC(=O)[C@H](Cc1ccc(O)cc1)NC(=O)[C@H](CO)NC(=O)[C@H](CO)NC(=O)[C@@H](NC(=O)[C@H](CC(=O)O)NC(=O)[C@H](CO)NC(=O)[C@@H](NC(=O)[C@H](Cc1ccccc1)NC(=O)[C@@H](NC(=O)CNC(=O)[C@H](CCC(=O)O)NC(=O)C(C)(C)NC(=O)[C@@H](N)Cc1c[nH]cn1)[C@@H](C)O)[C@@H](C)O)C(C)C)C(=O)N[C@@H](C)C(=O)N[C@@H](Cc1c[nH]c2ccccc12)C(=O)N[C@@H](CC(C)C)C(=O)N[C@H](C(=O)N[C@@H](CCCNC(=N)N)C(=O)NCC(=O)N[C@@H](CCCNC(=N)N)C(=O)N[C@@H](CCCCNC(=O)[C@@H](N)CCCCNC(=O)[C@H](CO)NC(=O)CNC(=O)[C@H](CO)NC(=O)CC[C@H](NC(=O)CCCCCCCCCCCOc1ccc(C(=O)O)cc1)C(=O)O)C(=O)O)C(C)C` [Example 29] showed an EC50 of 5 pM.
